Results on eight compounds are retold here after patent US11780821B2, “Inhibitors of fibroblast activation protein” (Praxis Biotech LLC, priority 2017, dated 2023).

Molecules are shown by their SMILES. Read-outs that look alike come from different tables or passages of the source.

Data set [1] is described as follows: Intravenous and oral bioavailability in mice. The settings on record: mouse; for AUC(0-t): oral (PO) 10 mg/kg single dose; for bioavailability: PO 10 mg/kg vs IV 2 mg/kg, read-out: F (bioavailability). In kind it is in vivo. The protocol:
The pharmacokinetic properties of exemplary test compounds were assayed after administration of an intravenous (IV) 2 mg/kg or oral (PO) 10 mg/kg single dose in mice. Exemplary test compounds were formulated at 0.4 and 1 mg/ml in a vehicle containing Poly-Ethylene Glycol 200 (PEG200; Cat. No. #P3015, Sigma Aldrich) and distilled water (dH2O) (50/50, v/v) as dosing solutions for intravenous and oral administration, respectively.
C57BL/6j and Balb/c mice, approximately 8-10 weeks old, were obtained from the vivarium Fundación Ciencia & Vida Chile (Santiago, Chile) and maintained in a temperature-controlled room with 12/12 hr light/dark schedule with food and water ad libitum. Animals were acclimated for a minimum period of 4 days upon arrival at the testing facility.
On the day of study, mice were weighed and identified by marking the tail with numbers using a non-toxic permanent marker for designation into the experimental groups (n=3 per group). Each mouse in the IV dosing groups received a systemic bolus of 2 mg/kg dosing solution via the caudal vein.
Non-dosed mice were used to collect samples of zero time points. […] Blood samples were centrifuged immediately at 9,000 g at 4° C. for 5 min and the plasma was separated.
The plasma samples were analyzed by QTRAP 4500 triple quadrupole mass spectrometer (Applied Biosystems SCIEX) in positive or negative ion mode depending on the tested compound and interfaced with an ekspert ultraLC 100-XL UPLC System (eksigent) to determine the concentration of the exemplary test compound. […] The precipitated samples were centrifuged at 6,100 g for 30 min at 4° C. Following centrifugation, an aliquot of each supernatant was transferred into a clean sample vial and diluted with two volumes of aqueous mobile phase (0.2% formic acid in water). Samples were injected onto a reverse phase analytical column (YMC Triart C18; 2.0×50 mm; 1.9 μm; YMC CO) and eluted with a gradient of 0.1 or 0.2% formic acid in Acetonitrile. Test compound and internal standard were monitored by a multiple reaction monitoring (MRM) experiment using Analyst software (v1.6.2, Applied Biosystems SCIEX). Quantitation was conducted using MultiQuant software (v2.1, Applied Biosystems SCIEX) and the resulting calibration curve was fitted with a linear or quadratic regression and 1/x weighting.
IV and PO PK parameters were calculated from the concentration-time data using Phoenix WinNonlin software (v6.4, Certara, Princeton, N.J.) by noncompartmental analysis. Area under the concentration-time curve (AUClast) was estimated using a log-linear trapezoidal method, from the dosing time to the last measurable concentration.

The target of data set [2] is T1, circulating FAPα from hamster plasma (Mesocricetus auratus, UniProt A0ABM2XF29).
T1 sequence (A0ABM2XF29 24-761): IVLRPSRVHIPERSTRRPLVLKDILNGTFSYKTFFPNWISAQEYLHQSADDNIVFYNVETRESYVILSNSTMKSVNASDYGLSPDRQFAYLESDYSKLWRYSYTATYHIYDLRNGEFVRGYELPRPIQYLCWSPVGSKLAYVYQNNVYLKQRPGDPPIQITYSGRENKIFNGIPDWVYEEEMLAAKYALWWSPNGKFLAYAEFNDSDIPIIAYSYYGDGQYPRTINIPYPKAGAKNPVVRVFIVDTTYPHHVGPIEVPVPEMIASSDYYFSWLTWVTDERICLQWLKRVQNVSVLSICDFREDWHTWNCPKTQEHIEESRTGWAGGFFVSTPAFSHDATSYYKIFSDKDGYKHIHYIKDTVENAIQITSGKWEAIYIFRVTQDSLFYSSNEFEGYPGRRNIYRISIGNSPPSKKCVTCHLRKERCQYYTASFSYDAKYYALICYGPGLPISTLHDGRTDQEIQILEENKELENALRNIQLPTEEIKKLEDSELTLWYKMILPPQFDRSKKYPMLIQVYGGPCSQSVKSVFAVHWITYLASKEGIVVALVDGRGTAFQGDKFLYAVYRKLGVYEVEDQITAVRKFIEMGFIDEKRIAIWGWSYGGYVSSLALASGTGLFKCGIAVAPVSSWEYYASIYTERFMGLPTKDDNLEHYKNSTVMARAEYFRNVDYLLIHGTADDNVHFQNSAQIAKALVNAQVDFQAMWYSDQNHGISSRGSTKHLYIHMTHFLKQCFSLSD
The experiment in a line: Ex vivo inhibition of circulating FAPα activity from hamster plasma. In kind it is biochemical, Golden Syrian hamster. The protocol: Male Golden Syrian hamsters were provided by National Laboratory Animal Center (NLAC) in Taiwan. The animals were maintained in a hygienic environment under controlled temperature (20-24° C.) and humidity (50%-80%) with 12 hours light/dark cycles. Free access to standard lab diet [MFG (Oriental Yeast Co., Ltd. Japan)] and autoclaved tap water were granted. All aspects of this work including housing, experimentation and disposal of animals were performed in general accordance with the “Guide for the Care and Use of Laboratory Animals: Eighth Edition” (National Academies Press, Washington, D.C., 2011). In addition, the animal care and use protocol was reviewed and approved by the IACUC at Pharmacology Discovery Services Taiwan, Ltd. Immediately after the sacrifice of hamsters, blood samples were collected via terminal cardiac puncture in tubes coated with EDTA-K2, mixed gently, then kept on ice and centrifuged at 2,500×g for 15 minutes at 4° C. After plasma separation, samples were stored at −80° C. in aliquots of 300 μL.
To assay exemplary compounds in hamster plasma, a similar protocol as described for human plasma was performed diluting thawed plasma 1:2 in cFAP buffer. In a 96-well black plate, 5 μl of diluted hamster plasma were mixed with 35 μl of the same buffer and 10 μl of exemplary test compounds at different concentrations or vehicle (DMSO).
Exemplary test compounds were allowed to interact with the enzyme for 15 minutes at 37° C. After pre-incubation, 50 μl of 200 μM PRXS-AMC substrate were added to the all mixtures. All reactions were carried out for 1 h at 37° C. protected from light. AMC release was detected measuring fluorescence at an excitation/emission wavelength of 380/460 nm using a Multifunction Microplate Reader. All measurements were carried out as single point.

[3] abbreviates: read-out: FAPα activity in hamster plasma (PRXS-AMC) IC50, PRXS-AMC substrate.
Setting [4] is: PRXS-AMC substrate, read-out: FAPα activity in hamster plasma (PRXS-AMC) IC50.

In the case of `N#C[C@@H]1CC(F)(F)CN1C(=O)CNC(=O)c1ccncc1-c1ccccc1` [Compound 13, (S)—N-(2-(2-cyano-4,4-difluoropyrrolidin-1-yl)-2-oxoethyl)-3-phenylisonicotinamide], in data set [1] (plasma), the AUC(0-t) is 760 ng·h/mL and the bioavailability came to 27.9%. The IC50 in data set [2] (setting [3]) is < 1000 nM.

Regarding `N#C[C@@H]1CC(F)(F)CN1C(=O)CNC(=O)c1c[nH]c(=O)c2ccccc12` [Example 1, (S)—N-(2-(2-cyano-4,4-difluoropyrrolidin-1-yl)-2-oxoethyl)-1-oxo-1,2-dihydroisoquinoline-4-carboxamide], in data set [1] (plasma), the AUC(0-t) is 327 ng·h/mL and the bioavailability amounted to 6.3%.

`N#C[C@@H]1CC(F)(F)CN1C(=O)CNC(=O)c1c[nH]c(=O)cc1-c1ccc(F)cc1` [Compound 109, (S)—N-(2-(2-cyano-4,4-difluoropyrrolidin-1-yl)-2-oxoethyl)-4-(4-fluorophenyl)-6-oxo-1,6-dihydropyridine-3-carboxamide]: in data set [1] (plasma), the AUC(0-t) stood at 2140 ng·h/mL and the bioavailability was found to be 9%. In data set [2] (setting [4]), the IC50 is < 1000 nM.

Regarding `N#C[C@@H]1CC(F)(F)CN1C(=O)CNC(=O)c1ccncc1Cc1ccccc1` [Compound 50, (S)-3-benzyl-N-(2-(2-cyano-4,4-difluoropyrrolidin-1-yl)-2-oxoethyl)isonicotinamide], in data set [1] (plasma), the AUC(0-t) turned out to be 1090 ng·h/mL and the bioavailability amounted to 79.6%.

For the compound `N#C[C@@H]1CC(F)(F)CN1C(=O)CNC(=O)c1ccncc1C1=CCNCC1` [Compound 105, (S)—N-(2-(2-cyano-4,4-difluoropyrrolidin-1-yl)-2-oxoethyl)-1′,2′,3′,6′-tetrahydro-[3,4′-bipyridine]-4-carboxamide 2,2,2-trifluoroacetate], the bioavailability in data set [1] (in vivo) worked out at 3%. The compound also had an AUC(0-t) in data set [1] (in vivo, plasma) of 18.3 ng·h/mL. In addition, the 50% inhibitory concentration (IC50) in data set [2] (setting [3]) is < 1000 nM.

As to `N#C[C@@H]1CC(F)(F)CN1C(=O)CNC(=O)c1ccncc1C1CC1` [Compound 24, (S)—N-(2-(2-cyano-4,4-difluoropyrrolidin-1-yl)-2-oxoethyl)-3-cyclopropylisonicotinamide], in data set [1] (plasma), the AUC(0-t) came out at 910 ng·h/mL and the bioavailability was found to be 54%. Moreover, in data set [2] (setting [3]), the IC50 was < 1000 nM.

`C=C(c1ccccc1)c1cnccc1C(=O)NCC(=O)N1CC(F)(F)C[C@H]1C#N` [Compound 122, (S)—N-(2-(2-cyano-4,4-difluoropyrrolidin-1-yl)-2-oxoethyl)-3-(1-phenylvinyl)isonicotinamide]: the IC50 in data set [2] (setting [4]) was < 1000 nM.

For the compound `N#C[C@@H]1CC(F)(F)CN1C(=O)CNC(=O)c1ccncc1-c1ccc(F)cc1` [Compound 52, (S)—N-(2-(2-cyano-4,4-difluoropyrrolidin-1-yl)-2-oxoethyl)-3-(4-fluorophenyl)isonicotinamide], in data set [1] (plasma), the AUC(0-t) stood at 721 ng·h/mL and the bioavailability is 30.3%. Moreover, in data set [2] (setting [3]), the IC50 is < 1000 nM.

Usually AUC(0-t) stands for exposure summed from dosing to a finite time, without extrapolation to infinity. Low readings indicate low exposure, high ones high exposure. As usually defined, the bioavailability is dose-corrected exposure relative to a reference, in per cent. Broadly, the IC50 is the concentration at which inhibition is half-maximal.
